Measured values from US20240132489A1, “AROMATIC HETEROCYCLIC COMPOUND, PHARMACEUTICAL COMPOSITION, AND USE THEREOF” (GT APEIRON THERAPEUTICS LIMITED, priority 2020, published 2024).
pIC50: −log10 of the molar value. Structures can show the parent of a compound that is named as a salt.

Assays:
[1] = molecular target: CDK12(aa686-1082)/cyclin K complex (Homo sapiens (Human), UniProt Q9NYV4); assay: In vitro enzymatic inhibitory activity test, CDK12; assay type: biochemical; settings: Caliper mobility shift, 180 min at 27° C.
CDK12(aa686-1082)/cyclin K complex, sequence (Q9NYV4 686-1082, species assumed): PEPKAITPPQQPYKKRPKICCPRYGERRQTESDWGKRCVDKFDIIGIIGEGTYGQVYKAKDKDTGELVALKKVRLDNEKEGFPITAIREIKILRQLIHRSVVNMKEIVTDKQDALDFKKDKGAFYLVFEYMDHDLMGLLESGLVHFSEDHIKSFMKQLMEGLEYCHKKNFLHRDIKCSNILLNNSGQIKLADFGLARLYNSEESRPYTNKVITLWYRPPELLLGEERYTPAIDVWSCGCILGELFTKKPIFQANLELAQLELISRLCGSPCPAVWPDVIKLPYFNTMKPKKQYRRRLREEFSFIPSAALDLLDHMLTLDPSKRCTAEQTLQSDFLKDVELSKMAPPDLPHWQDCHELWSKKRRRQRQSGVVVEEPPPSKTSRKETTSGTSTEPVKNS
CDK12(aa686-1082)/cyclin K complex, sequence (O75909 whole entry partner, species assumed, the tested form may be a part): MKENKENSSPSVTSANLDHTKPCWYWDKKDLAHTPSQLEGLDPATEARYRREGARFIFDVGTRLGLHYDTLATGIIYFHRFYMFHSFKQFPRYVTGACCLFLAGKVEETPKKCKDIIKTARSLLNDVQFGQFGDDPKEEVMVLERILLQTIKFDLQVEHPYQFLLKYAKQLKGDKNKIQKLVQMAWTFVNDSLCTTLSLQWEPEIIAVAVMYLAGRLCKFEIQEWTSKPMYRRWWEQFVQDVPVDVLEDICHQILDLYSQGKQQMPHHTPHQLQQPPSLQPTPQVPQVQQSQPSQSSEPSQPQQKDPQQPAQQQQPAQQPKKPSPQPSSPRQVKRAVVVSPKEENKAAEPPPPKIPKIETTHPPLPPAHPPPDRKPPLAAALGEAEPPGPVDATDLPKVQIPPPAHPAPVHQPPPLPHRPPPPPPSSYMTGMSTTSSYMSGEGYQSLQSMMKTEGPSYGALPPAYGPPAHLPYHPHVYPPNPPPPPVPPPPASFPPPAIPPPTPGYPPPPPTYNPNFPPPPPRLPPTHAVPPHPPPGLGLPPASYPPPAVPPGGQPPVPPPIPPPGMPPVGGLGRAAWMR
Method: (§1) CDK7/CyclinH was diluted in a test buffer solution (20 mM MES PH6.75, 0.01% Tween20, 50 ug/mL BSA, 6 mM MgCl2) to obtain a corresponding enzyme solution with a 2.4× concentration. CDK2/CyclinE1 was diluted in a test buffer solution (20 mM MES PH6.75, 0.01% Tween20, 50 ug/mL BSA, 6 mM MgCl2) to obtain a corresponding enzyme solution with a 2.4× concentration. CDK9/CyclinT1 was diluted in a test buffer solution (20 mM MES PH6.75, 0.01% Tween20, 50 ug/mL BSA, 10 mM MgCl2) to obtain a corresponding enzyme solution with a 2.4× concentration. CDK12/CyclinK was diluted in a test buffer solution (80 mM MES PH6.5, 0.01% Tween20, 50 ug/mL BSA, 10 mM MgCl2) to obtain a corresponding enzyme solution with a 2.4× concentration. The compounds were dissolved in dimethyl sulfoxide (DMSO) at a concentration of 10 mM. […] 2 ul of a test compound solution was mixed with 5 ul of enzyme solution. After incubating for 10 min, 5 ul of the mixed solution of the polypeptide substrate and ATP was added. After incubating at 27° C. for 180 min, 4 uL of EDTA with a 120 mM concentration was added to each sample to stop the reaction. […] A CDK9/cyclin TI complex (8 nM) and a “5-FAM-CDK9tide” peptide substrate (2 μM, synthetic fluorophore labeled peptide having the following sequence: 5-FAM-GSRTPMY-NH2, where 5-FAM was as defined above, and NH2 represented C-terminal amide) were used for testing the CDK9 inhibition. […] A CDK2/cyclin E1 complex (0.5 nM) and the “5-FAM-CDK7tide” (2 μM) as defined above were used for testing the CDK2 inhibition.
(§2) Electrophoretic separation was performed on Caliper EZ Reader II by means of a fluorogenic substrate and a phosphorylated product to analyze the reaction mixture. Data were calculated by using GraphPad Prism version 6.0. IC50 values were adjusted by means of a nonlinear regression model using a dose-response curve.

[2] = test system: HCC70 cells; assay: Cell bioactivity detection (CyQuant), HCC70; assay type: cell-based; settings: Homo sapiens, HCC70, 72 h, human breast cancer cells HCC70, 72 hours
Method: (§3) Trypsinization was performed on A2780 and HCC70 cells. Cell suspensions were respectively transferred to 15 mL of centrifuge tubes and centrifuged at 800 rpm for 5 min. The supernatant was discarded. Resuspension in a fresh culture medium (RPMI 1640+10% FBS) was performed. After counting, the cells were inoculated at 2000/well in a 384-well plate (50 φL of 1640+10% FBS culture medium was added to the 2nd line and the 23rd line of the 384-well plate, and 50 μL of DPBS was added to surrounding wells). Incubation in an incubator (37° C., 5% CO2) was performed overnight.
(§4) The compound was added to the well plate the next day. The compound had the highest concentration of 10 μM and was diluted at the ratio of 1:4 to form 9 concentrations. The positive compound Paclitaxel had the highest concentration of 1 μM and was diluted at the ratio of 1:3 to form 9 concentrations. The DMSO content of each well was unified to 0.2%. A cell plate was centrifuged at 800 rpm for 30 seconds. Incubation for 72 hours in an incubator (37° C., 5% CO2) was performed. On the fourth day, a Cyquant reagent (3×) was prepared according to kit instructions. Each 384-well plate was prepared in the following proportions: DPBS: 11.568 mL, CyQuant® Direct nucleic acid stain: 72 μL, CyQuant® Direct background suppressor: 360 ILL. The plates were uniformly mixed and placed for standby application at room temperature. The cell plate was taken out and placed at room temperature to be balanced for 30 min. 25 μL of Cyquant reagent (3×) was dispensed to the cells in each well of the 384-well plates by using a Multi-drop dispenser. Incubation at 37° C. for 60 or more minutes was performed. The plates were read by Acumen (Acumen was configured to have a 488 nm excitation wavelength). IC50 results were analyzed by XLFIT5 of the IDBS company.

[3] = molecular target: CDK9/CyclinT1 (Homo sapiens (Human), UniProt P50750); assay: In vitro enzymatic inhibitory activity test, CDK9; assay type: biochemical; settings: Caliper mobility shift, 180 min at 27° C.
CDK9/CyclinT1, sequence (P50750 whole entry, species assumed): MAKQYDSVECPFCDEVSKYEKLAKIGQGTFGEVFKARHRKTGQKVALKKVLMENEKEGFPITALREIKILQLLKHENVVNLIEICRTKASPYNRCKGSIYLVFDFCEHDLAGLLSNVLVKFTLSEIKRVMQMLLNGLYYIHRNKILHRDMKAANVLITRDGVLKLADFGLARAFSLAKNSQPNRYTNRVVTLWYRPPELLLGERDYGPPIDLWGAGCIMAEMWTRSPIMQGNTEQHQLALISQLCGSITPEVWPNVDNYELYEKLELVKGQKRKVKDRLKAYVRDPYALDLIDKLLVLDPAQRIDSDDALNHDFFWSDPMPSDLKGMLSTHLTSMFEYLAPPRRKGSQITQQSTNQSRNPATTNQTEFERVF
CDK9/CyclinT1, sequence (O60563 whole entry partner, species assumed): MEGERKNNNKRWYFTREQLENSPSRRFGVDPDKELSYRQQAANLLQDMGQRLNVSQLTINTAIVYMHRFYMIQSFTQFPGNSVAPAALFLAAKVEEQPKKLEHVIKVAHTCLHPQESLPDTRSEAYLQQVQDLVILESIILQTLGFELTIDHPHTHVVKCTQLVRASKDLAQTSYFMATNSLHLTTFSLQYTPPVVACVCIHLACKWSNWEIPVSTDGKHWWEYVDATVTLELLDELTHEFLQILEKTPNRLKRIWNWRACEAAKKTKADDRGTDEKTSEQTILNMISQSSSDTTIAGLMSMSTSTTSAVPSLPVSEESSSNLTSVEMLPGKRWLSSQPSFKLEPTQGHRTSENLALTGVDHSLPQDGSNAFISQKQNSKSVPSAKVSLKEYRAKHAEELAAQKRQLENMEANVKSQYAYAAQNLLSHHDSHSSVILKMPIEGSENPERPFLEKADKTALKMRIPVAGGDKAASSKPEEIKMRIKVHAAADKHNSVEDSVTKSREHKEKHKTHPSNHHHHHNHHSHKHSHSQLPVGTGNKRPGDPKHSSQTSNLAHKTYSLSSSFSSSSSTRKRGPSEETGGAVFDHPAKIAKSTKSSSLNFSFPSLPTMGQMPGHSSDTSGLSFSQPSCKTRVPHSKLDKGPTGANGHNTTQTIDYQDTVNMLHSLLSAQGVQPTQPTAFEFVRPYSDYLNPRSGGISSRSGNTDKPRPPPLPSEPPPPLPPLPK
Method: as §1, §2

[4] = molecular target: CDK7/cyclin H/MAT1 complex (Homo sapiens (Human), UniProt P50613); assay: In vitro enzymatic inhibitory activity test, CDK7; assay type: biochemical; settings: Caliper mobility shift, 180 min at 27° C.
CDK7/cyclin H/MAT1 complex, sequence (P50613 whole entry, species assumed): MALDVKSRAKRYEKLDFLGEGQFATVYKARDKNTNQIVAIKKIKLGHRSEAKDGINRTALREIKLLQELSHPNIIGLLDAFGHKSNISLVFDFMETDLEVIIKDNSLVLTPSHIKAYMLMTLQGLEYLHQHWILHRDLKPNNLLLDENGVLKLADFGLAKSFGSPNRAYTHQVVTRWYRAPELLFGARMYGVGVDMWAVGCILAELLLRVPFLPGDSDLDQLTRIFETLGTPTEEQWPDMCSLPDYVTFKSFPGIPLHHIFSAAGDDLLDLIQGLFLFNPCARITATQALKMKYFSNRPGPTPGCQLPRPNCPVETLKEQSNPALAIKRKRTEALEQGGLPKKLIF
CDK7/cyclin H/MAT1 complex, sequence (P51946 whole entry partner, species assumed): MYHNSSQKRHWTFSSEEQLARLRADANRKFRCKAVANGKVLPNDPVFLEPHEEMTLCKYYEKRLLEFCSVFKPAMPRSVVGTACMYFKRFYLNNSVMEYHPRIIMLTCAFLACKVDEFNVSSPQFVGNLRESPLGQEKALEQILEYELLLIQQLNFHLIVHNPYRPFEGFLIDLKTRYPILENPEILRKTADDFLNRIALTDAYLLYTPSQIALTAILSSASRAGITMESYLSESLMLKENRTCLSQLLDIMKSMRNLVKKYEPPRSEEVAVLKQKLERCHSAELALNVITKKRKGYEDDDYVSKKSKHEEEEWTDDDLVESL
CDK7/cyclin H/MAT1 complex, sequence (P51948 whole entry partner, species assumed): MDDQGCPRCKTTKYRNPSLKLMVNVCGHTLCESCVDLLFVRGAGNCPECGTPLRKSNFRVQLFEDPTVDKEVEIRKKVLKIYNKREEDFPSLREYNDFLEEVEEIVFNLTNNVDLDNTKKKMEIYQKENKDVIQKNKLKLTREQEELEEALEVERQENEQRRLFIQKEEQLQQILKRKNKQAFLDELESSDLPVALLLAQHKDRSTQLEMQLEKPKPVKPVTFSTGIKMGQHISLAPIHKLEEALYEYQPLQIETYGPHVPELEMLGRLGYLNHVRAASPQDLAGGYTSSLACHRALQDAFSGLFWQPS
Method: as §1, §2

[5] = test system: A2780 cells; assay: Cell bioactivity detection (CyQuant), A2780; assay type: cell-based, human; settings: Homo sapiens, A2780, 72 h, ovarian carcinoma cells A2780, 72 hours
Method: as §3, §4

[6] = molecular target: CDK2/cyclin E1 complex (Homo sapiens (Human), UniProt P24941); assay: In vitro enzymatic inhibitory activity test, CDK2; assay type: biochemical; settings: Caliper mobility shift, 180 min at 27° C.
Method: CDK7/CyclinH was diluted in a test buffer solution (20 mM MES PH6.75, 0.01% Tween20, 50 ug/mL BSA, 6 mM MgCl2) to obtain a corresponding enzyme solution with a 2.4× concentration. CDK2/CyclinE1 was diluted in a test buffer solution (20 mM MES PH6.75, 0.01% Tween20, 50 ug/mL BSA, 6 mM MgCl2) to obtain a corresponding enzyme solution with a 2.4× concentration. CDK9/CyclinT1 was diluted in a test buffer solution (20 mM MES PH6.75, 0.01% Tween20, 50 ug/mL BSA, 10 mM MgCl2) to obtain a corresponding enzyme solution with a 2.4× concentration. CDK12/CyclinK was diluted in a test buffer solution (80 mM MES PH6.5, 0.01% Tween20, 50 ug/mL BSA, 10 mM MgCl2) to obtain a corresponding enzyme solution with a 2.4× concentration. […] 2 ul of a test compound solution was mixed with 5 ul of enzyme solution. After incubating for 10 min, 5 ul of the mixed solution of the polypeptide substrate and ATP was added. After incubating at 27° C. for 180 min, 4 uL of EDTA with a 120 mM concentration was added to each sample to stop the reaction. […] A CDK9/cyclin TI complex (8 nM) and a “5-FAM-CDK9tide” peptide substrate (2 μM, synthetic fluorophore labeled peptide having the following sequence: 5-FAM-GSRTPMY-NH2, where 5-FAM was as defined above, and NH2 represented C-terminal amide) were used for testing the CDK9 inhibition. […] A CDK2/cyclin E1 complex (0.5 nM) and the “5-FAM-CDK7tide” (2 μM) as defined above were used for testing the CDK2 inhibition.
as §2

Compound: FC(F)(F)c1cnc(N[C@H]2CCCNC2)nc1-c1c[nH]c2nc(N3CCCOCC3)ccc12 [Compound 22, (S)-4-(6-(1,4-oxazepan-4-yl)-1H-pyrrolo[2,3-b]pyridin-3-yl)-N-(piperidin-3-yl)-5-(trifluoromethyl)pyrimidine-2-amine]
- pIC50 [1]: 6.11
- pIC50 [2]: 7.97
- pIC50 [3]: 5.54
- pIC50 [4]: 8.15
- pIC50 [5]: 8.33
- pIC50 [6]: 5.52

Compound: CC1(O)CCN(c2ccc3c(-c4nc(N[C@H]5CCCNC5)ncc4C(F)(F)F)c[nH]c3n2)CC1 [Compound 23, (S)-4-methyl-1-(3-(2-(piperidine-3-amino)-5-(trifluoromethyl)pyrimidin-4-yl)-1H-pyrrolo[2,3-b]pyridin-6-yl)piperidin-4-ol]
- pIC50 [1]: 6.11
- pIC50 [2]: 7.70
- pIC50 [3]: 5.58
- pIC50 [4]: 7.88
- pIC50 [5]: 8.06
- pIC50 [6]: 5.37

Compound: FC(F)(F)c1cnc(N[C@H]2CCCNC2)nc1-c1c[nH]c2nc(N3CCN(C4COC4)CC3)ccc12 [Compound 24, (S)-4-(6-(4-(oxetan-3-yl)piperazin-1-yl)-1H-pyrrolo[2,3-b]pyridin-3-yl)-N-(piperidin-3-yl)-5-(trifluoromethyl)pyrimidine-2-amine]
- pIC50 [1]: 5.70
- pIC50 [2]: 7.14
- pIC50 [3]: 5.28
- pIC50 [4]: 7.76
- pIC50 [5]: 6.96
- pIC50 [6]: 5.07

Compound: O=S1(=O)CCN(c2ccc3c(-c4nc(N[C@H]5CCCNC5)ncc4C(F)(F)F)c[nH]c3n2)CC1 [Compound 25, (S)-4-(3-(2-(piperidine-3-amino)-5-(trifluoromethyl)pyrimidin-4-yl)-1H-pyrrolo[2,3-b]pyridin-6-yl)thiomorpholine-1,1-dioxide]
- pIC50 [1]: 6.56
- pIC50 [2]: 7.96
- pIC50 [3]: 6.40
- pIC50 [4]: 8.19
- pIC50 [5]: 8.10
- pIC50 [6]: 5.98

Compound: C[C@H]1COCCN1c1ccc2c(-c3nc(N[C@H]4CCC(C)(C)NC4)ncc3C(F)(F)F)c[nH]c2n1 [Compound 26, N—((S)-6,6-dimethylpiperidin-3-yl)-4-(6-((S)-3-methylmorpholinyl)-1H-pyrrolo[2,3-b]pyridin-3-yl)-5-(trifluoromethyl)pyrimidine-2-amine]
- pIC50 [1]: < 5.00
- pIC50 [2]: 7.28
- pIC50 [3]: < 5.00
- pIC50 [4]: 8.02
- pIC50 [5]: 7.52
- pIC50 [6]: < 5.00

Compound: FC(F)(F)c1cnc(N[C@H]2CCCNC2)nc1-c1c[nH]c2nc(C3=CCOCC3)ccc12 [Compound 27, (S)-4-(6-(3,6-dihydro-2H-pyran-4-yl)-1H-pyrrolo[2,3-b]pyridin-3-yl)-N-(piperidin-3-yl)-5-(trifluoromethyl)pyrimidine-2-amine]
- pIC50 [1]: 6.38
- pIC50 [2]: 7.52
- pIC50 [3]: 5.82
- pIC50 [4]: 8.66
- pIC50 [5]: 8.29
- pIC50 [6]: 5.95

Compound: FC(F)(F)c1cnc(N[C@H]2CCCNC2)nc1-c1c[nH]c2nc(C3CCOCC3)ccc12 [Compound 28, (S)—N-(piperidin-3-yl)-4-(6-(tetrahydro-2H-pyran-4-yl)-1H-pyrrolo[2,3-b]pyridin-3-yl)-5-(trifluoromethyl)pyrimidine-2-amine formate]
- pIC50 [1]: 5.96
- pIC50 [2]: 8.11
- pIC50 [3]: 5.44
- pIC50 [4]: 8.16
- pIC50 [5]: 8.11
- pIC50 [6]: 5.46

Compound: FC(F)(F)c1cnc(N[C@H]2CCCNC2)nc1-c1c[nH]c2nc(C3CCOC3)ccc12 (stereo partly drawn) [Compound 29, N—((S)-piperidin-3-yl)-4-(6-(tetrahydrofuran-3-yl)-1H-pyrrol[2,3-b]pyridin-3-yl)-5-(trifluoromethyl)pyrimidine-2-amine formate]
- pIC50 [1]: 6.07
- pIC50 [2]: 8.51
- pIC50 [3]: 5.61
- pIC50 [4]: 8.15
- pIC50 [5]: 8.68
- pIC50 [6]: 5.90

Compound: FC(F)(F)c1cnc(N[C@H]2CCCNC2)nc1-c1c[nH]c2nc(C3CCCCO3)ccc12 (stereo partly drawn) [Compound 30, N—((S)-piperidin-3-yl)-4-(6-(tetrahydropyran-2-yl)-1H-pyrrolo[2,3-b]pyridin-3-yl)-5-(trifluoromethyl)pyrimidine-2-amine formate]
- pIC50 [1]: 5.67
- pIC50 [2]: 7.70
- pIC50 [3]: 5.02
- pIC50 [4]: 7.98
- pIC50 [5]: 8.25
- pIC50 [6]: 5.49

Compound: FC(F)(F)c1cnc(N[C@H]2CCCNC2)nc1-c1c[nH]c2nc(C34CCOCC3C4)ccc12 (stereo partly drawn) [Compound 31, 4-(6-(3-oxabicyclo[4.1.0]heptan-6-yl)-1H-pyrrolo[2,3-b]pyridin-3-yl)-N—((S)-piperidin-3-yl)-5-(trifluoromethyl)pyrimidine-2-amine formate]
- pIC50 [1]: 6.29
- pIC50 [2]: 8.24
- pIC50 [3]: 5.83
- pIC50 [4]: 8.09
- pIC50 [5]: 8.39
- pIC50 [6]: 6.01

Compound: FC(F)(F)c1cnc(N[C@H]2CCCNC2)nc1-c1c[nH]c2nc(N3CC4CCC3CO4)ccc12 (stereo partly drawn) [Compound 32, 4-(6-(2-oxo-5-azabicyclo[2.2.2]octan-5-yl)-1H-pyrrol[2,3-b]pyridin-3-yl)-N—((S)-piperidin-3-yl)-5-(trifluoromethyl)pyrimidine-2-amine]
- pIC50 [1]: 5.46
- pIC50 [2]: 7.62
- pIC50 [3]: 5.19
- pIC50 [4]: 7.70
- pIC50 [5]: 8.20
- pIC50 [6]: 5.44

Compound: FC(F)(F)c1cnc(N[C@H]2CCCNC2)nc1-c1c[nH]c2nc(N3CCOC[C@@H]3C(F)(F)F)ccc12 [Compound 33, N—((S)-piperidin-3-yl)-5-(trifluoromethyl)-4-(6-((R)-3-(trifluoromethyl)morpholinyl)-1H-pyrrol[2,3-b]pyridin-3-yl)pyrimidine-2-amine]
- pIC50 [1]: 5.70
- pIC50 [2]: 7.92
- pIC50 [3]: 5.35
- pIC50 [4]: 7.33
- pIC50 [5]: 8.62
- pIC50 [6]: 5.49
